Source: US6156700A, “3-(1,2-Benzisothiazol- and isoxazol-5-yl)-2,4(1H,3H)-pyrimidinedione or thione and 3-(1,2-benzisothiazol- and isoxazol-5-yl)-4(3H)-pyrimidinone or thione herbicidal agents” (American Cyanmid Company, priority 1998, dated 2000)
Several values for one entry are separate records, joined by “and”; a condition that tells them apart may be missing. Identical values can stand only once.

Tests used:
SETVI = assay: Postemergence herbicidal evaluation; format: in vivo
CHEAL = assay: Postemergence herbicidal evaluation; format: in vivo
IPOHE = assay: Postemergence herbicidal evaluation; format: in vivo
ORYSAT [1] = assay: Preemergence herbicidal evaluation; format: in vivo, Oryza sativa; parameters: scale not given here
CASOB = assay: Postemergence herbicidal evaluation; format: in vivo
IPOSS = assay: Postemergence herbicidal evaluation; format: in vivo
TRZAWR = assay: Postemergence herbicidal evaluation; format: in vivo
GLXMA [2] = assay: Postemergence herbicidal evaluation; format: in vivo
AMBEL = assay: Postemergence herbicidal evaluation; format: in vivo
GALAP = assay: Postemergence herbicidal evaluation; format: in vivo
GLXMAW = assay: Postemergence herbicidal evaluation; format: in vivo
ORYSAT [3] = assay: Postemergence herbicidal evaluation; format: in vivo, Oryza sativa
ECHCG = assay: Postemergence herbicidal evaluation; format: in vivo
GLXMA [4] = assay: Preemergence herbicidal evaluation; format: in vivo
Protocol: The preemergence and postemergence herbicidal properties of certain compounds of the present invention are compared with certain compounds disclosed in U.S. Pat. Nos. 5,484,763 and 5,523,278. The evaluations are performed as described in Examples 185 and 186. Data in Tables V and VI are reported by the compound number given in Example 185 for the compounds of this invention or by comparative compound letter for the compounds disclosed in U.S. Pat. Nos. 5,484,763 and 5,523,278.

ABUTH = assay: Postemergence herbicidal evaluation; format: in vivo; conditions: 0.0313-0.0320 kg/ha

O=C1C2=C(CCCC2)C(=O)N1c1ccc2snc(-c3ccccc3)c2c1 [A]
herbicidal effect rating (SETVI; 0.0157-0.0160 kg/ha): 1.0 and 1.2
herbicidal effect rating (SETVI; 0.0313-0.0320 kg/ha): 1.0 and 1.6
herbicidal effect rating (SETVI; 0.0625-0.0640 kg/ha): 2.1
herbicidal effect rating (SETVI; 0.1250 kg/ha): 3.0
herbicidal effect rating (SETVI; 0.2500 kg/ha): 2.7
herbicidal effect rating (SETVI; 0.5000 kg/ha): 2.0
herbicidal effect rating (CHEAL; 0.0157-0.0160 kg/ha): 9.0 and 5.8
herbicidal effect rating (CHEAL; 0.0313-0.0320 kg/ha): 9.0 and 6.3
herbicidal effect rating (CHEAL; 0.0625-0.0640 kg/ha): 7.1
herbicidal effect rating (CHEAL; 0.1250 kg/ha): 7.9
herbicidal effect rating (CHEAL; 0.2500 kg/ha): 9.0
herbicidal effect rating (CHEAL; 0.5000 kg/ha): 9.0
herbicidal effect rating (IPOHE; 0.0157-0.0160 kg/ha): 5.0
herbicidal effect rating (IPOHE; 0.0313-0.0320 kg/ha): 5.7
herbicidal effect rating (IPOHE; 0.0625-0.0640 kg/ha): 6.0
herbicidal effect rating (IPOHE; 0.1250 kg/ha): 7.5
herbicidal effect rating (ORYSAT [1]; 0.0156-0.0160 kg/ha): 0.0
herbicidal effect rating (ORYSAT [1]; 0.0620-0.0630 kg/ha): 0.5
herbicidal effect rating (ORYSAT [1]; 0.1250 kg/ha): 0.5
herbicidal effect rating (ORYSAT [1]; 0.2500 kg/ha): 3.0
herbicidal effect rating (ORYSAT [1]; 0.5000 kg/ha): 3.0
herbicidal effect rating (CASOB; 0.0625-0.0640 kg/ha): 7.9
herbicidal effect rating (CASOB; 0.1250 kg/ha): 8.9
herbicidal effect rating (CASOB; 0.2500 kg/ha): 9.0
herbicidal effect rating (CASOB; 0.5000 kg/ha): 9.0
herbicidal effect rating (IPOSS; 0.0157-0.0160 kg/ha): 5.5 and 5.0
herbicidal effect rating (IPOSS; 0.0313-0.0320 kg/ha): 9.0 and 6.8
herbicidal effect rating (IPOSS; 0.0625-0.0640 kg/ha): 7.5
herbicidal effect rating (IPOSS; 0.1250 kg/ha): 8.4
herbicidal effect rating (IPOSS; 0.2500 kg/ha): 9.0
herbicidal effect rating (IPOSS; 0.5000 kg/ha): 9.0
herbicidal effect rating (TRZAWR; 0.0157-0.0160 kg/ha): 2
herbicidal effect rating (TRZAWR; 0.0313-0.0320 kg/ha): 3.8
herbicidal effect rating (TRZAWR; 0.0625-0.0640 kg/ha): 4.0
herbicidal effect rating (TRZAWR; 0.1250 kg/ha): 4.3
herbicidal effect rating (GLXMA [2]; 0.0157-0.0160 kg/ha): 3.5
herbicidal effect rating (GLXMA [2]; 0.0313-0.0320 kg/ha): 4.3
herbicidal effect rating (AMBEL; 0.0157-0.0160 kg/ha): 7.0 and 6.0
herbicidal effect rating (AMBEL; 0.0313-0.0320 kg/ha): 9.0 and 5.6
herbicidal effect rating (AMBEL; 0.0625-0.0640 kg/ha): 6.9
herbicidal effect rating (AMBEL; 0.1250 kg/ha): 7.0
herbicidal effect rating (AMBEL; 0.2500 kg/ha): 9.0
herbicidal effect rating (AMBEL; 0.5000 kg/ha): 9.0
herbicidal effect rating (GALAP; 0.0157-0.0160 kg/ha): 5.5 and 3.8
herbicidal effect rating (GALAP; 0.0625-0.0640 kg/ha): 5.4
herbicidal effect rating (GALAP; 0.1250 kg/ha): 6.4
herbicidal effect rating (GALAP; 0.2500 kg/ha): 8.3
herbicidal effect rating (GALAP; 0.5000 kg/ha): 9.0
herbicidal effect rating (GLXMAW; 0.0157-0.0160 kg/ha): 4.0
herbicidal effect rating (GLXMAW; 0.0313-0.0320 kg/ha): 4.0
herbicidal effect rating (GLXMAW; 0.0625-0.0640 kg/ha): 4.6
herbicidal effect rating (GLXMAW; 0.1250 kg/ha): 4.6
herbicidal effect rating (GLXMAW; 0.2500 kg/ha): 4.6
herbicidal effect rating (GLXMAW; 0.5000 kg/ha): 4.5
herbicidal effect rating (ORYSAT [3]; 0.0157-0.0160 kg/ha): 2.0
herbicidal effect rating (ORYSAT [3]; 0.0313-0.0320 kg/ha): 2.3 and 2.1
herbicidal effect rating (ORYSAT [3]; 0.0625-0.0640 kg/ha): 2.6
herbicidal effect rating (ORYSAT [3]; 0.1250 kg/ha): 2.9
herbicidal effect rating (ORYSAT [3]; 0.2500 kg/ha): 3.6
herbicidal effect rating (ORYSAT [3]; 0.5000 kg/ha): 4.5
herbicidal effect rating (ECHCG; 0.0157-0.0160 kg/ha): 1.0 and 0.5
herbicidal effect rating (ECHCG; 0.0313-0.0320 kg/ha): 1.0 and 0.6
herbicidal effect rating (ECHCG; 0.0625-0.0640 kg/ha): 1.0
herbicidal effect rating (ECHCG; 0.1250 kg/ha): 1.8
herbicidal effect rating (ECHCG; 0.2500 kg/ha): 2.7
herbicidal effect rating (ECHCG; 0.5000 kg/ha): 2.0
herbicidal effect rating (GLXMA [4]; 0.0156-0.0160 kg/ha): 0.0
herbicidal effect rating (GLXMA [4]; 0.0313-0.0320 kg/ha): 0.0
herbicidal effect rating (ABUTH): 9.0 and 7.8
